# Test results as given in patent US8106072B2, “7- (4-substituted-3-cyclopropylaminomethyl-1-pyrrolidinyl) quinolonecarboxylic acid derivative” (Kyorin Pharmaceutical Co., Ltd., priority 2003, dated 2012).
# Columns and labels:
# Test in all cases: In vitro antibacterial activity (MIC, agar plate dilution)
# Format in all cases: cell-based
# [1] = test system: S. aureus MR5867; conditions: Staphylococcus aureus, S. aureus MR5867 (methicillin-resistant S. aureus), Mueller-Hinton agar
# Protocol: (§1) The in-vitro antibacterial activity of the compound of the present invention, as measured by the minimum inhibitory concentration (MIC), was determined by the agar plate dilution technique using Mueller-Hinton agar medium. The technique met the criteria specified by the National Committee for Clinical Laboratory Standard (1997) [NCCLS. Methods for Dilution Antibacterial Susceptibility Tests for Bacteria that grow Aerobically—Forth Edition: Approved Standard m7-A4. NCCLS, Villanova, Pa.]. For Streptococcus pneumonia and Enterococcus, the MIC values were determined by using Muller-Hinton agar supplemented with 5% defibrinated horse blood.
# [2] = test system: S. pneumoniae Type III; conditions: Streptococcus pneumoniae, Muller-Hinton agar supplemented with 5% defibrinated horse blood
# Protocol: as §1
# [3] = test system: S. aureus Smith; conditions: Staphylococcus aureus, Mueller-Hinton agar
# Protocol: as §1
# [4] = test system: E. faecalis IID682; conditions: Enterococcus faecalis, Muller-Hinton agar supplemented with 5% defibrinated horse blood
# Protocol: as §1
# [5] = test system: S. aureus MS16401; conditions: Staphylococcus aureus, S. aureus MS16401 (quinolone-resistant S. aureus), Mueller-Hinton agar
# Protocol: as §1
SMILES,MIC [1] [µg/mL],MIC [2] [µg/mL],MIC [3] [µg/mL],MIC [4] [µg/mL],MIC [5] [µg/mL]
"COc1c(N2C[C@H](CNC3CC3)[C@@H](F)C2)c(F)cc2c(=O)c(C(=O)O)cn(C3CC3)c12 [Example 9, 1-cyclopropyl-7-[(3S,4R)-3-cyclopropylaminomethyl-4-fluoro-1-pyrrolidinyl]-6-fluoro-1,4-dihydro-8-methoxy-4-oxo-3-quinolinecarboxylic acid]",≤ 8,≤ 8,≤ 8,63,16
"COc1c(N2C[C@H](CNC3CC3)[C@H](F)C2)ccc2c(=O)c(C(=O)O)cn(C3CC3)c12 [Example 2, 1-cyclopropyl-7-[(3S,4S)-3-cyclopropylaminomethyl-4-fluoro-1-pyrrolidinyl]-1,4-dihydro-8-methoxy-4-oxo-3-quinolinecarboxylic acid]",16,31,8,125,31
"COc1c(N2C[C@@H](CNC3CC3)[C@H](C(F)(F)F)C2)c(F)cc2c(=O)c(C(=O)O)cn(C3CC3)c12 (relative stereo) [Example 6, 1-cyclopropyl-7-(trans-3-cyclopropylaminomethyl-4-trifluoromethyl-1-pyrrolidinyl)-6-fluoro-1,4-dihydro-8-methoxy-4-oxo-3-quinolinecarboxylic acid]",8,63,31,250,63
"O=C(O)c1cn(C2CC2)c2c(OC(F)F)c(N3C[C@H](CNC4CC4)[C@H](F)C3)ccc2c1=O [Example 4, 1-cyclopropyl-7-[(3S,4S)-3-cyclopropylaminomethyl-4-fluoro-1-pyrrolidinyl]-8-difluoromethoxy-1,4-dihydro-4-oxo-3-quinolinecarboxylic acid]",31,63,16,500,63
"O=C(O)c1cn(C2CC2)c2c(OC(F)F)c(N3C[C@H](CNC4CC4)[C@H](F)C3)c(F)cc2c1=O [Example 3, 1-cyclopropyl-7-[(3S,4S)-3-cyclopropylaminomethyl-4-fluoro-1-pyrrolidinyl]-6-fluoro-8-difluoromethoxy-1,4-dihydro-4-oxo-3-quinolinecarboxylic acid]",8,16,8,125,8
"COc1c(N2C[C@@H](CNC3CC3)[C@H](C)C2)c(F)cc2c(=O)c(C(=O)O)cn(C3CC3)c12 (relative stereo) [Example 5, 1-cyclopropyl-7-(trans-3-cyclopropylaminomethyl-4-methyl-1-pyrrolidinyl)-6-fluoro-1,4-dihydro-8-methoxy-4-oxo-3-quinolinecarboxylic acid]",8,31,8,125,16
"COc1c(N2C[C@H](CNC3CC3)[C@@H](C)C2)ccc2c(=O)c(C(=O)O)cn(C3CC3)c12 [Example 7, 1-cyclopropyl-7-[(3S,4R)-3-cyclopropylaminomethyl-4-methyl-1-pyrrolidinyl]-1,4-dihydro-8-methoxy-4-oxo-3-quinolinecarboxylic acid]",63,63,31,250,125
"COc1c(N2C[C@@H](CNC3CC3)[C@H](C)C2)ccc2c(=O)c(C(=O)O)cn(C3CC3)c12 [Example 8, 1-cyclopropyl-7-[(3R,4S)-3-cyclopropylaminomethyl-4-methyl-1-pyrrolidinyl]-1,4-dihydro-8-methoxy-4-oxo-3-quinolinecarboxylic acid]",31,125,31,500,63
"COc1c(N2C[C@H](CNC3CC3)[C@H](F)C2)c(F)cc2c(=O)c(C(=O)O)cn(C3CC3)c12 [Example 1, 1-cyclopropyl-7-[(3S,4S)-3-cyclopropylaminomethyl-4-fluoro-1-pyrrolidinyl]-6-fluoro-1,4-dihydro-8-methoxy-4-oxo-3-quinolinecarboxylic acid]",8,≤ 8,8,63,4
